Data from patent US12281108B2, “Pyrrolidinone derivatives as formyl peptide 2 receptor agonists” (BRISTOL-MYERS SQUIBB COMPANY, priority 2018, dated 2025).

These compounds were tested against T1, human FPR2 receptors (Homo sapiens, UniProt P25090) (assay: FPR2 cAMP assay in CHO cells overexpressing human FPR2 (HTRF)). Conditions: hFPR2 assay; potency bins; read-out: hFPR2 agonist activity EC50.
T1 sequence (P25090 1-351): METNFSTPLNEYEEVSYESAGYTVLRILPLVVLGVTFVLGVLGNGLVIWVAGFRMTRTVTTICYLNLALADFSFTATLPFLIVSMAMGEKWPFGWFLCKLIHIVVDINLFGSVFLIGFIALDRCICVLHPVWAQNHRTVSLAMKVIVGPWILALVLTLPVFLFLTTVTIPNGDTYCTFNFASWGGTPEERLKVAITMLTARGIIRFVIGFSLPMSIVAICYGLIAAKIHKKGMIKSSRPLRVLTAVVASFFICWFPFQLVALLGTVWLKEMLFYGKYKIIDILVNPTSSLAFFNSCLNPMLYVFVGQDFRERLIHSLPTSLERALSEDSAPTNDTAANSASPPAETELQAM
Format: cell-based
Excerpt: N-formyl peptide receptors (FPRs) are a family of chemo attractant receptors that facilitate leukocyte response during inflammation. FPRs belong to the seven-transmembrane G protein-coupled receptor superfamily and are linked to inhibitory G-proteins (Gi). Three family members (FPR1, FPR2 and FPR3) have been identified in humans and are predominantly found in myeloid cells with varied distribution and have also been reported in multiple organs and tissues. After agonist binding, the FPRs activate a multitude of physiological pathways, such as intra cellular signaling transduction, Ca^2+ mobilization and transcription. The family interacts with a diverse set of ligands that includes proteins, polypeptides and fatty acid metabolites which activate both pro-inflammatory and pro-resolution downstream responses. FPR2 and FPR1 Cyclic Adenosine Monophosphate (cAMP) Assays were used to measure the in vitro activity of the compounds disclosed in this application.
FPR2 and FPR1 Cyclic Adenosine Monophosphate (cAMP) Assays. A mixture of forskolin (5 μM final for FPR2 or 10 μM final for FPR1) and IBMX (200 μM final) were added to 384-well Proxiplates (Perkin-Elmer) pre-dotted with test compounds in DMSO (1% final) at final concentrations in the range of 0.020 nM to 100 μM. Chinese Hamster Ovary cells (CHO) overexpressing human FPR1 or human FPR2 receptors were cultured in F-12 (Ham's) medium supplemented with 10% qualified FBS, 250 μg/ml zeocin and 300 μg/ml hygromycin (Life Technologies). Reactions were initiated by adding 2,000 human FPR2 cells per well or 4,000 human FPR1 cells per well in Dulbecco's PBS (with calcium and magnesium) (Life Technologies) supplemented with 0.1% BSA (Perkin-Elmer). The reaction mixtures were incubated for 30 min at room temperature. The level of intracellular cAMP was determined using the HTRF HiRange cAMP assay reagent kit (Cisbio) according to manufacturer's instruction. Solutions of cryptate conjugated anti-cAMP and d2 flurorophore-labelled cAMP were made in a supplied lysis buffer separately. Upon completion of the reaction, the cells were lysed with equal volume of the d2-cAMP solution and anti-cAMP solution. After a 1-h room temperature incubation, time-resolved fluorescence intensity was measured using the Envision (Perkin-Elmer) at 400 nm excitation and dual emission at 590 nm and 665 nm. A calibration curve was constructed with an external cAMP standard at concentrations ranging from 1 μM to 0.1 pM by plotting the fluorescent intensity ratio from 665 nm emission to the intensity from the 590 nm emission against cAMP concentrations. The potency and activity of a compound to inhibit cAMP production was then determined by fitting to a 4-parametric logistic equation from a plot of cAMP level versus compound concentrations.

EC50 [nM]	Compound
40 to 150	COc1cc(F)c([C@@H]2CNC(=O)[C@H]2Nc2nnc(-c3ccc(C(F)F)cc3)o2)c(F)c1 [Example 17, (3S,4R)-4-(2,6-difluoro-4-methoxyphenyl)-3-({5-[4-(difluoromethyl)phenyl]-1,3,4-oxadiazol-2-yl}amino)pyrrolidin-2-one]
40 to 150	COc1cc(F)c([C@@H]2CNC(=O)[C@H]2Nc2nnc(-c3ccc(Oc4cncc(C)n4)cc3)o2)c(F)c1 [Example 63, (3S,4R)-4-(2,6-difluoro-4-methoxyphenyl)-3-[(5-{4-[(6-methylpyrazin-2-yl)oxy]phenyl}-1,3,4-oxadiazol-2-yl)amino]pyrrolidin-2-one]
≤ 40	COc1cc(F)c([C@@H]2CNC(=O)[C@H]2Nc2nnc(-c3ccc(Oc4ccc(Cl)cc4)cc3)o2)c(F)c1 [Example 40, (3S,4R)-3-({5-[4-(4-chlorophenoxy)phenyl]-1,3,4-oxadiazol-2-yl}amino)-4-(2,6-difluoro-4-methoxyphenyl)pyrrolidin-2-one]
150 to 1000	COc1cc(F)c([C@@H]2CNC(=O)[C@H]2Nc2nnc(C(=O)NCCc3ccc(Cl)cc3)o2)c(F)c1 [Example 54, N-[2-(4-chlorophenyl)ethyl]-5-{[(3S,4R)-4-(2,6-difluoro-4-methoxyphenyl)-2-oxopyrrolidin-3-yl]amino}-1,3,4-oxadiazole-2-carboxamide]
40 to 150	COc1cc(F)c([C@@H]2CNC(=O)[C@H]2Nc2nnc(-c3ccc(Oc4cnc(Cl)cn4)cc3)o2)c(F)c1 [Example 60, (3S,4R)-3-[(5-{4-[(5-chloropyrazin-2-yl)oxy]phenyl}-1,3,4-oxadiazol-2-yl)amino]-4-(2,6-difluoro-4-methoxyphenyl)pyrrolidin-2-one]
≤ 40	COc1cc(F)c([C@@H]2CNC(=O)[C@H]2Nc2nnc(C3CC3c3cccc(Cl)c3)o2)c(F)c1 (stereo partly drawn) [Example 45, (3S,4R)-3-({5-[2-(3-chlorophenyl)cyclopropyl]-1,3,4-oxadiazol-2-yl}amino)-4-(2,6-difluoro-4-methoxyphenyl)pyrrolidin-2-one]
≤ 40	COc1cc(F)c([C@@H]2CNC(=O)[C@H]2Nc2nnc(-c3ccc(C(F)(F)F)nc3)o2)c(F)c1 [Example 10, (3S,4R)-4-(2,6-difluoro-4-methoxyphenyl)-3-({5-[6-(trifluoromethyl)pyridin-3-yl]-1,3,4-oxadiazol-2-yl}amino)pyrrolidin-2-one]
40 to 150	COc1cc(F)c([C@@H]2CNC(=O)[C@H]2Nc2nnc(-c3ccc(OC(F)(F)F)cc3)s2)c(F)c1 [Example 30, (3S,4R)-4-(2,6-difluoro-4-methoxyphenyl)-3-({5-[4-(trifluoromethoxy)phenyl]-1,3,4-thiadiazol-2-yl}amino)pyrrolidin-2-one]
150 to 1000	COc1cc(F)c([C@@H]2CNC(=O)[C@H]2Nc2nnc(-c3ccccc3)o2)c(F)c1 [Example 4, (3S,4R)-4-(2,6-difluoro-4-methoxyphenyl)-3-[(5-phenyl-1,3,4-oxadiazol-2-yl)amino]pyrrolidin-2-one]
40 to 150	COc1cc(F)c([C@@H]2CNC(=O)[C@H]2Nc2nnc(-c3ccc(Oc4ncccc4F)cc3)o2)c(F)c1 [Example 61, (3S,4R)-4-(2,6-difluoro-4-methoxyphenyl)-3-[(5-{4-[(3-fluoropyridin-2-yl)oxy]phenyl}-1,3,4-oxadiazol-2-yl)amino]pyrrolidin-2-one]
≤ 40	COc1cc(F)c([C@@H]2CNC(=O)[C@H]2Nc2nnc(-c3ccc(Oc4ccc(Cl)cn4)cc3)o2)c(F)c1 [Example 55, (3S,4R)-3-[(5-{4-[(5-chloropyridin-2-yl)oxy]phenyl}-1,3,4-oxadiazol-2-yl)amino]-4-(2,6-difluoro-4-methoxyphenyl)pyrrolidin-2-one]
≤ 40	COc1cc(F)c([C@@H]2CN(C)C(=O)[C@H]2Nc2nnc(-c3ccc(Cl)cc3)o2)c(F)c1 [Example 20, (3S,4R)-3-{[5-(4-chlorophenyl)-1,3,4-oxadiazol-2-yl]amino}-4-(2,6-difluoro-4-methoxyphenyl)-1-methylpyrrolidin-2-one]
150 to 1000	COc1cc(F)c([C@@H]2CNC(=O)[C@H]2Nc2nnc(-c3cccnc3)o2)c(F)c1 [Example 6, (3S,4R)-4-(2,6-difluoro-4-methoxyphenyl)-3-{[5-(pyridin-3-yl)-1,3,4-oxadiazol-2-yl]amino}pyrrolidin-2-one]
≤ 40	COc1cc(F)c([C@@H]2CNC(=O)[C@H]2Nc2nnc(C3CC3c3ccc(Cl)cc3)o2)c(F)c1 (stereo partly drawn) [Example 41, (3S,4R)-3-({5-[2-(4-chlorophenyl)cyclopropyl]-1,3,4-oxadiazol-2-yl}amino)-4-(2,6-difluoro-4-methoxyphenyl)pyrrolidin-2-one]
40 to 150	COc1cc(F)c([C@@H]2CNC(=O)[C@H]2Nc2nnc(C3CC3c3cc(F)cc(F)c3)o2)c(F)c1 (stereo partly drawn) [Example 42, (3S,4R)-4-(2,6-difluoro-4-methoxyphenyl)-3-({5-[2-(3,5-difluorophenyl)cyclopropyl]-1,3,4-oxadiazol-2-yl}amino)pyrrolidin-2-one]
≤ 40	COc1cc(F)c([C@@H]2CNC(=O)[C@H]2Nc2nnc(-c3ccc(Oc4cc(Cl)ccn4)cc3)o2)c(F)c1 [Example 68, (3S,4R)-3-[(5-{4-[(4-chloropyridin-2-yl)oxy]phenyl}-1,3,4-oxadiazol-2-yl)amino]-4-(2,6-difluoro-4-methoxyphenyl)pyrrolidin-2-one]
150 to 1000	COc1cc(F)c([C@@H]2CNC(=O)[C@H]2Nc2nnc(-c3ccc(C#N)cc3)o2)c(F)c1 [Example 9, 4-(5-{[(3S,4R)-4-(2,6-difluoro-4-methoxyphenyl)-2-oxopyrrolidin-3-yl]amino}-1,3,4-oxadiazol-2-yl)benzonitrile]
≤ 40	COc1cc(F)c([C@@H]2CNC(=O)[C@H]2Nc2nnc(-c3ccc(Cl)nc3)o2)c(F)c1 [Example 16, (3S,4R)-3-{[5-(6-chloropyridin-3-yl)-1,3,4-oxadiazol-2-yl]amino}-4-(2,6-difluoro-4-methoxyphenyl)pyrrolidin-2-one]
≤ 40	COc1cc(F)c([C@@H]2CNC(=O)[C@H]2Nc2nnc(-c3ccc(Oc4ccccc4)cc3)o2)c(F)c1 [Example 35, (3S,4R)-4-(2,6-difluoro-4-methoxyphenyl)-3-{[5-(4-phenoxyphenyl)-1,3,4-oxadiazol-2-yl]amino}pyrrolidin-2-one]
150 to 1000	COc1cc(F)c([C@@H]2CNC(=O)[C@H]2Nc2nnc(-c3ccc(Oc4cccc(OC)n4)cc3)o2)c(F)c1 [Example 67, (3S,4R)-4-(2,6-difluoro-4-methoxyphenyl)-3-[(5-{4-[(6-methoxypyridin-2-yl)oxy]phenyl}-1,3,4-oxadiazol-2-yl)amino]pyrrolidin-2-one]
150 to 1000	COc1cc(F)c([C@@H]2CNC(=O)[C@H]2Nc2nc3ccc(Cl)cc3o2)c(F)c1 [Example 1, (3S,4R)-3-[(6-chloro-1,3-benzoxazol-2-yl)amino]-4-(2,6-difluoro-4-methoxyphenyl)pyrrolidin-2-one]
150 to 1000	COc1cc(F)c([C@@H]2CNC(=O)[C@H]2Nc2nnc(C3CCC(F)(F)CC3)o2)c(F)c1 [Example 25, (3S,4R)-4-(2,6-difluoro-4-methoxyphenyl)-3-{[5-(4,4-difluorocyclohexyl)-1,3,4-oxadiazol-2-yl]amino}pyrrolidin-2-one]
40 to 150	COc1cc(F)c([C@@H]2CNC(=O)[C@H]2Nc2nnc(-c3ccc(Cl)nc3)s2)c(F)c1 [Example 31, (3S,4R)-3-{[5-(6-chloropyridin-3-yl)-1,3,4-thiadiazol-2-yl]amino}-4-(2,6-difluoro-4-methoxyphenyl)pyrrolidin-2-one]

Compound	EC50 [nM]
CCCCOc1ccc(-c2nnc(N[C@@H]3C(=O)NC[C@H]3c3c(F)cc(OC)cc3F)o2)cc1 [Example 34, (3S,4R)-3-{[5-(4-butoxyphenyl)-1,3,4-oxadiazol-2-yl]amino}-4-(2,6-difluoro-4-methoxyphenyl)pyrrolidin-2-one]	40 to 150
